Test [1] has as its system 35 HIV-1 pseudoviruses (subtypes A, B, B', C, G, A/C, A/E, B/C). Conditions: for inhibitory activity against different subtypes of HIV-1 as folds of T-20: relative to T-20, from average IC50. The source says: HIV-1 pseudovirus-mediated cell entry inhibition assay: basic steps included: (1) Preparation of HIV-1 pseudovirus: the 293T cells were co-transfected with a plasmid expressing the envelope protein (Env) of HIV-1 strain NL4-3 (i.e., a recombinant expression plasmid obtained by inserting the gene encoding the envelope protein (ENV) of the D36G mutant of the HIV-1 strain NL4-3 in the Table 2 of the Reference 14 listed in the Background Art into the vector pcDNA3.1(−)) and the HIV-1 backbone plasmid pSG3Δenv (provided by the AIDS Reagent Program of National Institutes of Health (NIH), catalog number: 11051) by using a cell transfection reagent, incubated in a cell incubator of 37° C. and 5% CO2 for 6 hours, and then the medium was changed, and the cells were further incubated for 48 hours. The cell culture supernatant containing pseudovirus particles was pipetted and filtered with a 0.45 μm filter to collect the supernatant, then 20% fetal bovine serum (FBS) was added thereto, the final solution was transferred to a polypropylene tube, and stored at −80° C. for ready for use or directly subjected to virus titration. (2) Titration of HIV-1 pseudovirus: the viruses were diluted by 5 folds in a 96-well plate, and 4 replicate wells with 8 gradients were set to a final volume of 100 microliters. The TZM-b1 cells were trypsinized and counted, and the cells were diluted to 1×10^5 cells/ml with DMEM complete medium; 100 μl of cells dilution (containing 15 μg/ml DEAE-dextran) per well were added and cultured at 37° C. and 5% CO2 for 48 hours. The 96-well plate was then taken from the cell culture incubator. The supernatant was discarded from the wells. To each well, 30 μl of a cell lysate was added, and after 10 minutes, 100 μl of a luciferase detection reagent was added. 100 μl of liquid was pipetted from each well and added to a corresponding 96-well white plate, and the luminescence values were read by a microplate photometer. The virus titer was calculated by the Reed-Muench method. (3) Antiviral activity assay: the test substance was dissolved in DMSO and diluted with a cell culture solution by 3 folds, and placed in a 96-well plate at a final volume of […]. 50 μl of a DMEM medium was used in place of the test substance as a negative control. To each well, 100 μl of TZM-b1 target cells solution (containing 15 μg/ml DEAE-dextran) at a concentration of 1×10^5 cells/ml was added, and then 50 μl (corresponding to 100 TCID50 per well) of the HIV-1 pseudovirus obtained above was added. After incubation at 37° C. and 5% CO2 for 48 hours, the relative light units (RLU) of each well were determined by using a luciferase detection reagent (Promega). Inhibition rate (%) and IC50 value were calculated.
Among them, the A, B and C subtypes were the main viruses causing AIDS epidemic in the world, while B/C and A/E recombinant viruses were the main viruses in China. […] Among the Env expression plasmids used for the preparation of pseudoviral, except that the Env expression plasmids used for preparation of PVO, Du156 and CAP 210.2.00.E8 were obtained from the AIDS Reagent Program of NIH in the United states, other plasmids were preserved by the laboratory of Prof. He Yuxian, Institute of Pathogen Biology, Chinese Academy of Medical Sciences, please see the References 13, 14 and 18 listed in the Background Art and articles of Chong et al. (Chong H, Yao X, Zhang C, Cai L, Cui S, Wang Y, He Y. Biophysical property and broad anti-HIV activity of Albuvirtide, a 3-maleimimidoproprotionic acid-modified peptide fusion inhibitor. PLoS One, 2012; 7 (3): e 32599). The preparation of the pseudovirus and the antiviral assay were the same as those in Example 2.1 of Example 2 (HIV-1 pseudovirus-mediated cell entry inhibition assay).

The test system of test [2] is NL4-3 pseudovirus carrying T-20 resistance mutation site of NHR. Put plainly: inhibition of T-20 resistant strains. In kind it is cell-based, HIV-1. Conditions: strains with single or double mutations.
For test [3], the system named is HIV-1 strain NL4-3 (NL4-3D36G). Put plainly: antiviral activity in serum of macaque after subcutaneous injection. The settings on record: 3 mg/kg subcutaneous. In kind it is in vivo, macaques (rhesus monkeys). On the procedure: The specific method was as follows: 6 experimental macaques (rhesus monkeys) were selected, half male and half female, aged 3-4 years old, weighing 3.4-4.7 kg. […] The serum was separated according to a conventional method. The injection interval of each inhibitor was more than 2 weeks to ensure that there was no residue of the previous analyte. The serum activity against the HIV-1 strain NL4-3 (NL4-3D36G) was measured according to the experimental method of the pseudovirus-based assay in the above examples. The serum was diluted by 3 folds. […] Therefore, the lipopeptides of the present invention were not only potent but also were long-lasting effective.

Where [4] appears, read: read-out: average IC50 for inhibition of various types of HIV-1 pseudoviruses, average over 35 pseudoviruses.
The mark [5] stands for this setting: 72 hours (3 days) after injection.

The values below come from patent publication US11680086B2, “Lipopeptide for potently inhibiting HIV, derivative thereof, pharmaceutical composition thereof and use thereof” (Institute of Pathogen Biology, Chinese Academy of Medical …, priority 2017, dated 2023).

pIC50: −log10 of the molar value. Like-named read-outs stand apart in the source and are kept apart here. Peptide text beside a SMILES is read from it. * marks the point of attachment. X1 = Cc1c(C)c2c(c(C)c1OC(=O)CCC(=O)*)CCC(C)(CCCC(C)CCCC(C)CCCC(C)C)O2; Stearoyl = CCCCCCCCCCCCCCCCCC(=O)*; Palmitoyl = CCCCCCCCCCCCCCCC(=O)* A value given as a limit tells only on which side of the number the result lay.

Usually pIC50 stands for the negative decadic logarithm of the IC50, by convention in mol/L. On to `CCCCCCCCCCCCCCCC(=O)NCCCC[C@H](NC(=O)[C@H](CCC(=O)O)NC(=O)[C@H](CC(C)C)NC(=O)[C@H](CCCCN)NC(=O)[C@H](CCCCN)NC(=O)[C@H](CC(C)C)NC(=O)[C@H](CCC(=O)O)NC(=O)[C@H](CCC(=O)O)NC(=O)[C@H](CCC(=O)O)NC(=O)[C@H](CC(N)=O)NC(=O)[C@H](CCCCN)NC(=O)[C@H](CCCCN)NC(=O)[C@H](CCC(N)=O)NC(=O)[C@H](CCC(N)=O)NC(=O)[C@H](CCC(=O)O)NC(=O)[C@H](CCC(=O)O)NC(=O)[C@H](C)NC(=O)[C@H](CCCCN)NC(=O)[C@H](CCCCN)NC(=O)[C@H](CC(C)C)NC(=O)[C@H](CC(C)C)NC(=O)[C@H](CCC(=O)O)NC(=O)[C@H](CCC(=O)O)NC(=O)[C@@H](NC(=O)[C@H](CCCCN)NC(=O)[C@H](CCC(N)=O)NC(=O)[C@H](CCC(=O)O)NC(=O)[C@H](Cc1c[nH]c2ccccc12)NC(C)=O)[C@@H](C)CC)C(N)=O` [LP-52] (Ac-WEQKIEELLKKAEEQQKKNEEELKKLEK(Palmitoyl)-NH2), for which the negative-log IC50 (pIC50) in test [1] (setting [4]) was 10.80. Besides, in test [1], the “inhibitory activity against different subtypes of HIV-1 as folds of T-20” value is on record as 2588 folds. Moreover, the “inhibitory activity against T-20 resistant strains (in words)” value (“inhibitory activity … (in words)” for short) in test [2] is on record as “thousands to tens of thousands of times better than that of the LP-40”. The “maximum serum dilution multiple for inhibiting 50% of NL4-3 infectivity” value in test [3] (4 hour after injection) is on record as 700802 folds; in test [3] (6 hour after injection), 669112 folds; in test [3] (setting [5]), 182 folds.

`CC[C@H](C)[C@H](NC(=O)[C@H](CCCCN)NC(=O)[C@H](CCC(N)=O)NC(=O)[C@H](CCC(=O)O)NC(=O)[C@H](Cc1c[nH]c2ccccc12)NC(C)=O)C(=O)N[C@@H](CCC(=O)O)C(=O)N[C@@H](CCC(=O)O)C(=O)N[C@@H](CC(C)C)C(=O)N[C@@H](CC(C)C)C(=O)N[C@@H](CCCCN)C(=O)N[C@@H](CCCCN)C(=O)N[C@@H](C)C(=O)N[C@@H](CCC(=O)O)C(=O)N[C@@H](CCC(=O)O)C(=O)N[C@@H](CCC(N)=O)C(=O)N[C@@H](CCC(N)=O)C(=O)N[C@@H](CCCCN)C(=O)N[C@@H](CCCCN)C(=O)N[C@@H](CC(N)=O)C(=O)N[C@@H](CCC(=O)O)C(=O)N[C@@H](CCC(=O)O)C(=O)N[C@@H](CCC(=O)O)C(=O)N[C@@H](CC(C)C)C(=O)N[C@@H](CCCCN)C(=O)N[C@@H](CCCCN)C(=O)N[C@@H](CC(C)C)C(=O)N[C@@H](CCC(=O)O)C(=O)N[C@@H](CCCCNC(=O)CCC(=O)Oc1c(C)c(C)c2c(c1C)CCC(C)(CCCC(C)CCCC(C)CCCC(C)C)O2)C(N)=O` (stereo partly drawn) [LP-85] (Ac-WEQKIEELLKKAEEQQKKNEEELKKLEK(X1)-NH2): the “inhibitory activity against different subtypes of HIV-1 as folds of T-20” value in test [1] was 941 folds. In test [2], the “inhibitory activity … (in words)” value is “thousands to tens of thousands of times better than that of the LP-40”.

As for `CCCCCCCCCCCCCCCCCC(=O)NCCCC[C@H](NC(=O)[C@H](CCC(=O)O)NC(=O)[C@H](CC(C)C)NC(=O)[C@H](CCCCN)NC(=O)[C@H](CCCCN)NC(=O)[C@H](CC(C)C)NC(=O)[C@H](CCC(=O)O)NC(=O)[C@H](CCC(=O)O)NC(=O)[C@H](CCC(=O)O)NC(=O)[C@H](CC(N)=O)NC(=O)[C@H](CCCCN)NC(=O)[C@H](CCCCN)NC(=O)[C@H](CCC(N)=O)NC(=O)[C@H](CCC(N)=O)NC(=O)[C@H](CCC(=O)O)NC(=O)[C@H](CCC(=O)O)NC(=O)[C@H](C)NC(=O)[C@H](CCCCN)NC(=O)[C@H](CCCCN)NC(=O)[C@H](CC(C)C)NC(=O)[C@H](CC(C)C)NC(=O)[C@H](CCC(=O)O)NC(=O)[C@H](CCC(=O)O)NC(=O)[C@@H](NC(=O)[C@H](CCCCN)NC(=O)[C@H](CCC(N)=O)NC(=O)[C@H](CCC(=O)O)NC(=O)[C@H](Cc1c[nH]c2ccccc12)NC(C)=O)[C@@H](C)CC)C(N)=O` [LP-80] (Ac-WEQKIEELLKKAEEQQKKNEEELKKLEK(Stearoyl)-NH2), the negative logarithm of the IC50 (pIC50) was greater than 12.00 in test [1] (read-out: IC50 for many strains, many individual strains of the 35 pseudoviruses) and 11.22 in test [1] (setting [4]). Also, the “inhibitory activity against different subtypes of HIV-1 as folds of T-20” value in test [1] is 6902 folds. For the same molecule, the “inhibitory activity … (in words)” value in test [2] is “thousands to tens of thousands of times better than that of the LP-40”. Also, the “maximum serum dilution multiple for inhibiting 50% of NL4-3 infectivity” value in test [3] (6 hour after injection) came out at 491409 folds; in test [3] (8 hour after injection), 537206 folds; in test [3] (setting [5]) it was 16157 folds; in test [3] (96 hours (4 days) after injection), 1980 folds; in test [3] (120 hours (5 days) after injection), 211 folds; in test [3] (144 hours (6 days) after injection) it was 46 folds.

Turning to `CCCCCCCCCCCCCCCCCC(=O)NCCCC[C@H](NC(=O)[C@H](CCC(=O)O)NC(=O)[C@H](CC(C)C)NC(=O)[C@H](CCCCN)NC(=O)[C@H](CCCCN)NC(=O)[C@H](CC(C)C)NC(=O)[C@H](CCC(=O)O)NC(=O)[C@H](CCC(=O)O)NC(=O)[C@H](CCC(=O)O)NC(=O)[C@H](CC(N)=O)NC(=O)[C@H](CCCCN)NC(=O)[C@H](CCCCN)NC(=O)[C@H](CCC(N)=O)NC(=O)[C@H](CCC(N)=O)NC(=O)[C@H](CCC(=O)O)NC(=O)[C@H](CCC(=O)O)NC(=O)[C@H](C)NC(=O)[C@H](CCCCN)NC(=O)[C@H](CCCCN)NC(=O)[C@H](CC(C)C)NC(=O)[C@H](CC(C)C)NC(=O)[C@H](CCC(=O)O)NC(=O)[C@H](CCC(=O)O)NC(=O)[C@@H](NC(C)=O)[C@@H](C)CC)C(N)=O` [LP-90] (Ac-IEELLKKAEEQQKKNEEELKKLEK(Stearoyl)-NH2), in test [1] (setting [4]), the pIC50 is 10.85. Besides, in test [1], the “inhibitory activity against different subtypes of HIV-1 as folds of T-20” value came to 2958 folds. The “inhibitory activity … (in words)” value in test [2] was “much lower active against T-20 resistant mutant strains than the LP-52 and LP-80”.
